From patent US20210113586A1, “NEW USE AND METHODS OF MODULATING IMMUNE RESPONSES” (DIAMYD MEDICAL AB, priority 2018, published 2021)

What was measured:
[1] = system: GABAA receptors; assay: Patch-clamp single-channel current recording in CD4+ T cells; type: cell-based, human; settings: GABA 100 or 500 nM; n=54 cells; FIG. 3i
Description: GABA-activated currents were recorded by the patch-clamp technique as previously described (Bjurstom et al., 2008, Jin et al., 2011a). Extracellular recording solution contained (in mM): 145 NaCl, 3 KCl, 1 CsCl, 1 CaCl2, 1 MgCl2, 10 glucose and 10 TES; the pH was adjusted to 7.4 with NaOH. To record in the whole-cell configuration, the pipette solution contained (in mM): 136 CsCl, 20 KCl, 1 MgCl2, 3 MgATP and 10 TES; pH was adjusted to 7.3 with CsOH. The pipette solution for the cell-attached configuration contained (in mM): 69 NaCl, 5 KCl, 75 CsCl, 1 CaCl2, 1 MgCl2 and 10 TES; pH was adjusted to 7.4 with NaOH. […] The pipette potential (Vp) was −80 mV (hyperpolarizing) in the whole-cell configuration and −60 mV (depolarizing) in the cell-attached configuration.

[2] = system: PBMCs from T1D individuals; assay: Proliferation of anti-CD3 stimulated PBMCs from T1D donors; type: cell-based, human; settings: Example 1, FIG. 1D; PBMCs from all 13 T1D donors; 100 nM GABA
Description: (§1) Peripheral Blood Mononuclear cells (PBMCs) are isolated from blood from donors diagnosed with Type-1 diabetes and healthy controls. Alternatively, CD4-positive cells (T-cells) are further isolated from PBMCs by e.g. MACS beads, FACS or similar technology. […] A reasonable replication, such as 3 cultures of each condition, is performed. A normalized proliferation value for each culture is then calculated by a standard proliferation measurement method, such as by CFSE staining or radioactive thymidine incorporation (requiring additional factors be added during culture) or by staining for proliferation markers.
(§2) In the FIG. 1, the proliferation of cells retrieved from 13 T1D subjects and 15 healthy controls were inspected. […] A normalized proliferation index was calculated for each culture.
The proliferation of freshly isolated human PBMCs or CD4^+ T cells was evaluated with MTT (3-(4,5-Dimethylthiazol-2-yl)-2,5-Diphenyltetrazolium Bromide) assay (Ring et al., 2012). Cells were suspended in complete medium (RPMI 1640 supplemented with 2 mM glutamine, 25 mM HEPES, 10% heat inactivated fetal bovine serum, 100 U/ml penicillin, 10 mg/ml streptomycin, 5 mM R-mercaptoethanol) in a concentration 1 million cells per milliliter. The assay was performed in 96-well plates in duplicates or triplicates, where each well was pre-coated with 3 μg/ml anti-CD3 antibody for 3-5 h at 37° C. Each well was loaded with 100,000 cells. Drugs were added to the wells at the relevant concentrations. The plate was incubated for 68 h at 37° C. (95% O2, 5% CO2) and then, a media-soluble tetrazolium dye MTT was added to a final concentration of 1 mM after which the plate was incubated for additional 4 h. The plate was then centrifuged at 2,000 RPM for 10 min to pellet the insoluble purple formazan crystals. The supernatant culture media was collected, stored at −80° C. and used for analysis of cytokines using the multiplex proximity extension assay (PEA). The formazan crystal pellet was dissolved in DMSO and the plate was read within 10 min using a Multiskan MS plate reader (Labsystems) at 550 nm. […]

[3] = system: responder CD4+ T cells; assay: Multiplex PEA of cytokines released into culture medium by responder CD4+ T cells; type: cell-based, human
Description: The proliferation of freshly isolated human PBMCs or CD4^+ T cells was evaluated with MTT (3-(4,5-Dimethylthiazol-2-yl)-2,5-Diphenyltetrazolium Bromide) assay (Ring et al., 2012). Cells were suspended in complete medium (RPMI 1640 supplemented with 2 mM glutamine, 25 mM HEPES, 10% heat inactivated fetal bovine serum, 100 U/ml penicillin, 10 mg/ml streptomycin, 5 mM R-mercaptoethanol) in a concentration 1 million cells per milliliter. The assay was performed in 96-well plates in duplicates or triplicates, where each well was pre-coated with 3 μg/ml anti-CD3 antibody for 3-5 h at 37° C. Each well was loaded with 100,000 cells. Drugs were added to the wells at the relevant concentrations. The plate was incubated for 68 h at 37° C. (95% O2, 5% CO2) and then, a media-soluble tetrazolium dye MTT was added to a final concentration of 1 mM after which the plate was incubated for additional 4 h. The plate was then centrifuged at 2,000 RPM for 10 min to pellet the insoluble purple formazan crystals. The supernatant culture media was collected, stored at −80° C. and used for analysis of cytokines using the multiplex proximity extension assay (PEA). The formazan crystal pellet was dissolved in DMSO and the plate was read within 10 min using a Multiskan MS plate reader (Labsystems) at 550 nm. The optical density value was used as the proliferation index value. Drugs were purchased from Sigma-Aldrich or Tocris (Bristol, UK).
Plasma samples, and culture media samples that were collected from plate wells at the end of the proliferation assay, were analyzed by multiplex PEA with an Olink Inflammation […] panel, targeting 92 proteins related to inflammation (Olink Proteomics, Uppsala, Sweden) as previously described (Edvinsson et al., 2017, Assarsson et al., 2014, Larsson et al., 2015, Larssen et al., 2017). Briefly, 1 μl of sample (plasma samples or cell culture media samples) or negative control was mixed with 3 μl probe solution containing a set of 92 paires DNA-oligonucleotide-conjugated antibodies. Upon recognition of a target protein by a pair of probes, the DNA oligonucletodies on the antibodies are brought in proximity and hybridize to each other, followed by enzymatic DNA polymerization to form a new DNA molecule. The newly formed DNA molecule is then amplified and quantified using a microfluidic real-time qPCR, BioMark™ HD (Fluidigm, South San Francisco, Calif., USA). The generated quantification cycle (Cq) values are normalized against spiked-in controls to convert Cq values to Normalized Protein eXpression (NPX) value on log2 scale. NPX is an arbitrary unit, which is positively correlated to protein concentration. These NPX data were then converted to linear data, using the formula 2^NPX, prior to further statistical analysis. Limit of detection (LOD) for each protein was defined as three standard deviations above the background. Proteins with levels below LOD were excluded from further data analysis.

[4] = system: PBMCs from ND individuals; settings: Example 1, FIG. 1C; PBMCs of 15 healthy donors; 100 nM GABA
Description: as §1, §2
The proliferation of freshly isolated human PBMCs or CD4^+ T cells was evaluated with MTT (3-(4,5-Dimethylthiazol-2-yl)-2,5-Diphenyltetrazolium Bromide) assay (Ring et al., 2012). Cells were suspended in complete medium (RPMI 1640 supplemented with 2 mM glutamine, 25 mM HEPES, 10% heat inactivated fetal bovine serum, 100 U/ml penicillin, 10 mg/ml streptomycin, 5 mM R-mercaptoethanol) in a concentration 1 million cells per milliliter. […] The formazan crystal pellet was dissolved in DMSO and the plate was read within 10 min using a Multiskan MS plate reader (Labsystems) at 550 nm. […]

[5] = GABA 100 nM, responder CD4+ T cells, normalized to control
[6] = GABA 500 nM, responder CD4+ T cells, normalized to control

In the case of `NCCCC(=O)O` [GABA, gamma-aminobutyric acid], the GABAA single-channel currents [1] is reported as “activated”, the “proliferation in the presence of GABA” value [2] is reported as “proliferated less” and the “number of cytokines whose release was significantly decreased” value ([3]; 100 nM GABA) is reported as 27 cytokines. The “number of cytokines whose release was significantly decreased” value ([3]; 500 nM GABA) was 25 cytokines, the “4E-BP1 in culture medium, % Mean” value [3, 5] was 67.1% and the “ADA in culture medium, % Mean” value [3, 5] was 79.3%. For the same compound, the “CASP-8 in culture medium, % Mean” value [3, 5] was 66.3%, the “CCL19 in culture medium, % Mean” value [3, 5] was 68.7% and the “CCL20 in culture medium, % Mean” value [3, 5] was 61.5%. For the same compound, the “CSCP1 in culture medium, % Mean” value [3, 5] was 60.6%, the “CSF-1 in culture medium, % Mean” value [3, 5] was 84.2% and the “CXCL10 in culture medium, % Mean” value [3, 5] was 62.7%. For the same compound, the “CXCL11 in culture medium, % Mean” value [3, 5] was 69.1%, the “DNER in culture medium, % Mean” value [3, 5] was 94.6% and the “Flt3L in culture medium, % Mean” value [3, 5] was 79.3%. For the same compound, the “IL-6 in culture medium, % Mean” value [3, 5] was 71.6%, the “IL-13 in culture medium, % Mean” value [3, 5] was 69.9% and the “IL-18R1 in culture medium, % Mean” value [3, 5] was 76.1%. For the same compound, the “IL-24 in culture medium, % Mean” value [3, 5] was 71.8%, the “LAP TGF-beta-1 in culture medium, % Mean” value [3, 5] was 79.6% and the “LIF in culture medium, % Mean” value [3, 5] was 66.9%. The “MCP-1 in culture medium, % Mean” value [3, 5] was 76.9%, the “OPG in culture medium, % Mean” value [3, 5] was 70.5% and the “OSM in culture medium, % Mean” value [3, 5] was 76.4%. For the same compound, the “STAMPB in culture medium, % Mean” value [3, 5] was 68.6%, the “TNFRSF9 in culture medium, % Mean” value [3, 5] was 86.3% and the “TNFSF14 in culture medium, % Mean” value [3, 5] was 70.6%. The “TRAIL in culture medium, % Mean” value [3, 5] was 75.9%, the “TRANCE in culture medium, % Mean” value [3, 5] was 89.3% and the “μPA in culture medium, % Mean” value [3, 5] was 78.9%. The “4E-BP1 in culture medium, % Mean” value [3, 6] was 50.6%, the “CASP-8 in culture medium, % Mean” value [3, 6] was 61.4% and the “CCL19 in culture medium, % Mean” value [3, 6] was 59.9%. The “CCL20 in culture medium, % Mean” value [3, 6] was 66.0%, the “CD40 in culture medium, % Mean” value [3, 6] was 77.8% and the “CDCP1 in culture medium, % Mean” value [3, 6] was 44.3%. For the same compound, the “CXCL1 in culture medium, % Mean” value [3, 6] was 72.2%, the “CXCL5 in culture medium, % Mean” value [3, 6] was 66.0% and the “CXCL9 in culture medium, % Mean” value [3, 6] was 62.2%. The “CXCL10 in culture medium, % Mean” value [3, 6] was 60.6%, the “CXCL11 in culture medium, % Mean” value [3, 6] was 66.6% and the “DNER in culture medium, % Mean” value [3, 6] was 68.6%. The “IFM-gamma in culture medium, % Mean” value [3, 6] was 73.2%, the “IL-5 in culture medium, % Mean” value [3, 6] was 76.0% and the “IL-8 in culture medium, % Mean” value [3, 6] was 81.2%. The “IL-12B in culture medium, % Mean” value [3, 6] was 69.4%, the “IL-13 in culture medium, % Mean” value [3, 6] was 83.0% and the “IL-18R1 in culture medium, % Mean” value [3, 6] was 85.8%. For the same compound, the “OPG in culture medium, % Mean” value [3, 6] was 66.4%, the “SCF in culture medium, % Mean” value [3, 6] was 61.8% and the “STAMPB in culture medium, % Mean” value [3, 6] was 57.8%. The “TNF in culture medium, % Mean” value [3, 6] was 47.8%, the “TNFB in culture medium, % Mean” value [3, 6] was 69.0% and the “TNFSF14 in culture medium, % Mean” value [3, 6] was 60.0%. The “μPA in culture medium, % Mean” value [3, 6] was 68.0%, the “number of cytokines whose secretion was decreased in total” value ([3]; responder group, concentration-dependent (100, 500 nM)) was 37 cytokines and the “proliferation in the presence of GABA” value [4] was “did not proliferate differently”.
